Results reported in patent US20050282824A1, “Substituted pyrimidines as inhibitors of bacterial type III protein secretion systems” (priority 2004, published 2005).

Legend:
Format in all cases: cell-based
[1] = test system: SPI1 type III protein secretion of SipB by S. enterica; assay: Secondary assay: Type III-dependent protein secretion of the SipB polypeptide by S. enterica; details: Salmonella enterica, read-out: SipB IC50(uM)
Description: Secondary assay: Type III-dependent protein secretion of the SipB polypeptide by S. enterica. The SipB protein of S. enterica is another effector of the SPI1 type III protein secretion system from S. enterica. In this cell-based procedure, the Type III-dependent secretion of SipB from the bacterial cytoplasm to the extracellular medium was measured through its reactivity with a cognate mouse monoclonal.
Salmonella enterica cells growing either in the presence or in the absence of inhibitors are induced for the production of SipB. Following an established period of growth the cells are sedimented and the amount of SipB present in the supernatant is quantified with a scanning imager following application of immunoblot techniques. Detection may employ an anti-SipB mouse monoclonal antibody (e.g., obtained from Jorge Galan, SUNY at Stony Brook, N.Y.) followed by treatment with commercially available sheep anti-mouse polyclonal antibody conjugated with horseradish peroxidase. Thereafter the membrane is treated with a peroxidase chemiluminescent substrate and exposed to film for an appropriate exposure time. Inhibition may be measured relative to untreated controls.

[2] = test system: SPI1 type III protein secretion of SopE'-'Bla by Salmonella enterica; assay: Primary assay: Type III protein secretion of the chimeric SopE'-'Bla polypeptide by Salmonella enterica; details: read-out: SopE IC50(uM)
Excerpt: Primary assay: Type III protein secretion of the chimeric SopE′-′Bla polypeptide by Salmonella enterica. This procedure is a cell-based assay that measures the type III-dependent secretion by Salmonella enterica of a plasmid-encoded chimeric polypeptide whose synthesis can be regulated, and which is endowed with an enzymatic activity that can be monitored […] by hydrolysis of a substrate that is unable to penetrate into the bacterial cytoplasm within the time constraints of the reaction. Thus, the colorimetric reaction is not influenced by SopE′-′Bla polypeptide in the bacterial cytoplasm. Instead, it effectively measures the amount of polypeptide that has been secreted from the S. enterica cytoplasm to the extracellular medium via type III system protein secretion.
The SopE′-′Bla recombinant polypeptide consists of two functionally distinct domains spliced together. The N-terminus domain is encoded by a polynucleotide region specifying the signal for type III secretion of the SopE polypeptide of S. enterica, an effector of the SPI1 type III protein secretion system. The C-terminus domain of SopE′-′Bla consists of a 263 amino acid peptide sequence that corresponds to the TEM-1 β-lactamase expressed by plasmid pBR322 but without its N-terminal signal sequence. The TEM-1 β-lactamase part of the SopE′-′Bla chimeric polypeptide is used as a reporter enzyme. It is capable of hydrolyzing nitrocefin resulting in a product whose accumulation can be monitored by colorimetric detection. The secretion of the SopE′-′Bla chimeric polypeptide from the cytoplasm to the extracellular medium is dependent on type III protein secretion.
For this procedure, cells grown under conditions known to favor a functional SPI1 secretion system are induced for expression of the SopE′-′Bla protein and grown either in the presence or in the absence of putative inhibitors for determined time. Nitrocefin is then added to the various cultures and its hydrolysis are used for quantitation. An inhibitor of Type III protein secretion is generally a compound that reduces the signal of the enzymatic reaction by decreasing the amount of SopE′-′Bla secreted into the extracellular medium.

[3] = test system: Type III protein secretion of ExoU by P. aeruginosa PA103; assay: Tertiary assay: Type III-dependent secretion of ExoU by P. aeruginosa PA103; details: Pseudomonas aeruginosa, read-out: ExoU IC50(uM)
Excerpt: Tertiary assay: inhibition of Type III protein secretion of effectors from a Pseudomonas aeruginosa system. Type III protein secretion is used by P. aeruginosa to secrete several essential virulence determinants. One effector of the type III protein secretion system of P. aeruginosa PA 103 is the virulence determinants ExoU.
The amount of Type III-dependent secretion of ExoU by P. aeruginosa PA103 can be determined in a cell-based assay by quantification of the 73.9 kDa ExoU protein secreted into the extracellular medium. Such quantitation can be achieved by growing strain PA 103 in a deferrated medium in the presence of nitrilotriacetic acid (an inducer of Type III protein secretion in P. aeruginosa) and either in the presence or absence of putative inhibitors. After a prolonged growth period, the cells are sedimented and the supernatants concentrated by ammonium sulfate precipitation. The proteins in the resuspended pellets are separated by electrophoresis on SDS-polyacrylamide gels. After staining gels with Colloidal Blue™, the 73.9 kDa ExoU band is quantitated by scanning through an imager. The effects of inhibitors on the intensity of the ExoU band may be measured relative to that of untreated controls.

Row | Compound | IC50 [1] [µM] | IC50 [2] [µM] | IC50 [3] [µM]
1 | O=C(N[C@@H](COCc1ccccc1)C(=O)O)c1cc(N2CCCCC2)nc(N2CCC(c3ccccc3)CC2)n1 [Compound 28, (S)-3-Benzyloxy-2-{[2-(4-phenylpiperidin-1-yl)-6-piperidin-1-yl-pyrimidine-4-carbonyl]amino}propionic acid] | 18.5 | 5.2 | –
2 | O=C(N[C@@H](CSCc1ccccc1)C(=O)O)c1cc(N2CCN(c3ccccc3)CC2)nc(-c2ccc(C(F)(F)F)cc2)n1 [Compound 23, (R)-3-Benzylsulfanyl-2-{[6-(4-phenyl-piperazin-1-yl)-2-(4-trifluoromethylphenyl)-pyrimidine-4-carbonyl]amino}propionic acid] | 31.7 | 3.3 | 73
3 | O=C(N[C@H](Cc1ccc(Cl)cc1)C(=O)O)c1cc(N2CCc3ccccc3C2)nc(-c2ccc(C(F)(F)F)cc2)n1 [Compound 8, (R)-3-(4-Chlorophenyl)-2-{[6-(3,4-dihydro-1H-isoquinolin-2-yl)-2-(4-trifluoromethylphenyl)pyrimidine-4-carbonyl]amino}propionic acid] | > 100 | 2 | –
4 | CN(C)c1ccc(-c2nc(C(=O)N[C@@H](CSCc3ccccc3)C(=O)O)cc(N3CCN(c4nccc(C(F)(F)F)n4)CC3)n2)cc1 [Compound 50, (R)-3-Benzylsulfanyl-2-({2-(4-dimethylaminophenyl)-6-[4-(4-trifluoromethyl-pyrimidin-2-yl)piperazin-1-yl]pyrimidine-4-carbonyl}amino)propionic acid] | > 100 | 20.1 | –
5 | O=C(N[C@@H](COCc1ccccc1)C(=O)O)c1cc(N2CCN(c3nccc(C(F)(F)F)n3)CC2)nc(-c2ccc(F)cc2)n1 [Compound 54, (S)-3-Benzyloxy-2-({2-(4-fluorophenyl)-6-[4-(4-trifluoromethylpyrimidin-2-yl)-piperazin-1-yl]pyrimidine-4-carbonyl}amino)propionic acid] | 2.7 | 1.3 | –
6 | CC1CCN(c2nc(C(=O)N[C@@H](CSCc3ccccc3)C(=O)O)cc(N3CCN(c4nccc(C(F)(F)F)n4)CC3)n2)CC1 [Compound 46, (R)-3-Benzylsulfanyl-2-({2-(4-methylpiperidin-1-yl)-6-[4-(4-trifluoromethyl-pyrimidin-2-yl)piperazin-1-yl]pyrimidine-4-carbonyl}amino)propionic acid] | 10.6 | 3.4 | –
7 | C=C(NC(=O)c1cc(N2CCN(c3nccc(C(F)(F)F)n3)CC2)nc(-c2ccoc2)n1)C(=O)O [Compound 63, 2-({2-Furan-3-yl-6-[4-(4-trifluoromethylpyrimidin-2-yl)piperazin-1-yl]pyrimidine-4-carbonyl}amino)acrylic acid] | > 100 | 21.4 | –
8 | O=C(N[C@@H](CSCc1ccccc1)C(=O)O)c1cc(N2CCN(c3nccc(C(F)(F)F)n3)CC2)nc(-c2ccc([N+](=O)[O-])cc2)n1 [Compound 52, (R)-3-Benzylsulfanyl-2-({2-(4-nitrophenyl)-6-[4-(4-trifluoromethylpyrimidin-2-yl)-piperazin-1-yl]pyrimidine-4-carbonyl}amino)propionic acid] | 15 | 10.4 | –
9 | O=C(NC(Cc1ccc(Cl)cc1)C(=O)O)c1cc(N2CCN(c3nccc(C(F)(F)F)n3)CC2)nc(-c2ccoc2)n1 (stereo not shown) [Compound 62, 3-(4-Chlorophenyl)-2-({2-furan-3-yl-6-[4-(4-trifluoromethylpyrimidin-2-yl)-piperazin-1-yl]pyrimidine-4-carbonyl}amino)propionic acid] | 12.6 | 5.4 | –
10 | O=C(N[C@@H](COCc1ccccc1)C(=O)O)c1cc(N2CCN(c3nccc(C(F)(F)F)n3)CC2)nc(-c2cccs2)n1 [Compound 57, (S)-3-Benzyloxy-2-({2-thiophen-2-yl-6-[4-(4-trifluoromethylpyrimidin-2-yl)-piperazin-1-yl]pyrimidine-4-carbonyl}amino)propionic acid] | 13.3 | 28.7 | –
11 | O=C(N[C@@H](CSCc1ccccc1)C(=O)O)c1cc(N2CCN(c3nccc(C(F)(F)F)n3)CC2)nc(-c2ccc(F)cc2)n1 [Compound 55, (R)-3-Benzylsulfanyl-2-({2-(4-fluorophenyl)-6-[4-(4-trifluoromethylpyrimidin-2-yl)-piperazin-1-yl]pyrimidine-4-carbonyl}amino)propionic acid] | 20.5 | 2.4 | –
12 | O=C(NC(Cc1ccc(Cl)cc1)C(=O)O)c1cc(N2CCN(c3nccc(C(F)(F)F)n3)CC2)nc(-c2cccs2)n1 (stereo not shown) [Compound 59, 3-(4-Chlorophenyl)-2-({2-thiophen-2-yl-6-[4-(4-trifluoromethylpyrimidin-2-yl)-piperazin-1-yl]pyrimidine-4-carbonyl}amino)propionic acid] | 17.1 | 1.8 | –
13 | O=C(N[C@@H](CSCc1ccccc1)C(=O)O)c1cc(N2CCN(c3nccc(C(F)(F)F)n3)CC2)nc(-c2cccs2)n1 [Compound 58, (R)-3-Benzylsulfanyl-2-({2-thiophen-2-yl-6-[4-(4-trifluoromethylpyrimidin-2-yl)-piperazin-1-yl]pyrimidine-4-carbonyl}amino)propionic acid] | 10.6 | 4.5 | –
14 | O=C(N[C@H](Cc1ccc(Cl)cc1)C(=O)O)c1cc(N2CCc3ccccc3C2)nc(-c2cccc(C(F)(F)F)c2)n1 [Compound 7, (R)-3-(4-Chlorophenyl)-2-{[6-(3,4-dihydro-1H-isoquinolin-2-yl)-2-(3-trifluoromethylphenyl)pyrimidine-4-carbonyl]amino}propionic acid] | > 100 | 1.2 | –
15 | O=C(N[C@@H](CSCc1ccccc1)C(=O)O)c1cc(N2CCN(c3ccccc3)CC2)nc(-c2ccc(Cl)c(Cl)c2)n1 [Compound 20, (R)-3-Benzylsulfanyl-2-{[2-(3,4-dichlorophenyl)-6-(4-phenyl-piperazin-1-yl)-pyrimidine-4-carbonyl]amino}propionic acid] | > 100 | 2.1 | –
16 | N#Cc1ccc(-c2nc(C(=O)N[C@H](Cc3ccc(Cl)cc3)C(=O)O)cc(N3CCc4ccccc4C3)n2)cc1 [Compound 10, (R)-3-(4-Chlorophenyl)-2-{[2-(4-cyanophenyl)-6-(3,4-dihydro-1H-isoquinolin-2-yl)pyrimidine-4-carbonyl]amino}propionic acid] | > 100 | 4.3 | –
17 | CN1CCN(c2nc(C(=O)N[C@@H](CSCc3ccccc3)C(=O)O)cc(N3CCN(c4nccc(C(F)(F)F)n4)CC3)n2)CC1 [Compound 44, (R)-3-Benzylsulfanyl-2-({2-(4-methyl-piperazin-1-yl)-6-[4-(4-trifluoromethyl-pyrimidin-2-yl)piperazin-1-yl]pyrimidine-4-carbonyl}amino)propionic acid] | > 100 | 85 | –
18 | CC1CCN(c2cc(C(=O)N[C@@H](CSCc3ccccc3)C(=O)O)nc(-c3ccc(Oc4ccccc4)cc3)n2)CC1 [Compound 37, (R)-3-Benzylsulfanyl-2-{[6-(4-methylpiperidin-1-yl)-2-(4-phenoxyphenyl)-pyrimidine-4-carbonyl]amino}propionic acid] | > 100 | 1.7 | –
